In ChEMBL document CHEMBL5257112, “Discovery of 4-oxo-4,5-dihydropyrazolo[1,5-a]quinoxaline-7-carboxamide derivatives as PI3Kα inhibitors via virtual screening and docking-based structure optimization” (Bioorg Med Chem, 2023):

Key:
[1] = target: Phosphatidylinositol 4,5-bisphosphate 3-kinase catalytic subunit alpha isoform (Homo sapiens, UniProt P42336); experiment: Inhibition of PI3Kalpha (unknown origin) using PIP2:PS as substrate preincubated for 1 hr followed by ATP and substate addition and measured after 1 hr by ADP-glo reagent based assay
Chain of Phosphatidylinositol 4,5-bisphosphate 3-kinase catalytic subunit alpha isoform (P42336 whole entry, canonical isoform): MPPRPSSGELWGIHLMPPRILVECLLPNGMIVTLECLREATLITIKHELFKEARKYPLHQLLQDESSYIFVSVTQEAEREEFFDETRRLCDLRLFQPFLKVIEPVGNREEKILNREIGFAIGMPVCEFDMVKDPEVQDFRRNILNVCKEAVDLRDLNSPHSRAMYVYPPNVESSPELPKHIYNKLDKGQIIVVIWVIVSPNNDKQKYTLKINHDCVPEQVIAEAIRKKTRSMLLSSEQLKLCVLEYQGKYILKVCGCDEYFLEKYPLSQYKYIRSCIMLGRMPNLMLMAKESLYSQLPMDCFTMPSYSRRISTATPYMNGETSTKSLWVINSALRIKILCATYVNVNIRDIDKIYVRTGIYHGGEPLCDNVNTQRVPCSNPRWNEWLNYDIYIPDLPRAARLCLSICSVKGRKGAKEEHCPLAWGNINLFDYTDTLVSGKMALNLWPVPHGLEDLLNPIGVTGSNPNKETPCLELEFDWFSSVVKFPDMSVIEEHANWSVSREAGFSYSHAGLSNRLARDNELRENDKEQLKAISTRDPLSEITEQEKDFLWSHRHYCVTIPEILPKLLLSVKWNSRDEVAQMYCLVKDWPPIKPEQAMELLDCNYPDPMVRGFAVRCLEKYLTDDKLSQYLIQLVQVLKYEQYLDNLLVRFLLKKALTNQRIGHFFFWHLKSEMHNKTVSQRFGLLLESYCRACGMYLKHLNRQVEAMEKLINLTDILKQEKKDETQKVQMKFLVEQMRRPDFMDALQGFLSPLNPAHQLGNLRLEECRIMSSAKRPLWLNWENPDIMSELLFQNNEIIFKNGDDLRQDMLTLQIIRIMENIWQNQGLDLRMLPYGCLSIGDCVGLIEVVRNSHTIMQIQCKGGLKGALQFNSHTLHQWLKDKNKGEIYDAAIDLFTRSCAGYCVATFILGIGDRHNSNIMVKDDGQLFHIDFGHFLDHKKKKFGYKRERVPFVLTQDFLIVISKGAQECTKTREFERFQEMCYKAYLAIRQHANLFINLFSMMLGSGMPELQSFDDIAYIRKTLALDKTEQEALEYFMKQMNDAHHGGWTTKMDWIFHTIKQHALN

[2] = target: Phosphatidylinositol 4,5-bisphosphate 3-kinase catalytic subunit beta isoform (Homo sapiens, UniProt P42338); experiment: Inhibition of PI3Kbeta (unknown origin) using PIP2:PS as substrate preincubated for 1 hr followed by ATP and substate addition and measured after 1 hr by ADP-glo reagent based assay
Chain of Phosphatidylinositol 4,5-bisphosphate 3-kinase catalytic subunit beta isoform (P42338 whole entry, canonical isoform): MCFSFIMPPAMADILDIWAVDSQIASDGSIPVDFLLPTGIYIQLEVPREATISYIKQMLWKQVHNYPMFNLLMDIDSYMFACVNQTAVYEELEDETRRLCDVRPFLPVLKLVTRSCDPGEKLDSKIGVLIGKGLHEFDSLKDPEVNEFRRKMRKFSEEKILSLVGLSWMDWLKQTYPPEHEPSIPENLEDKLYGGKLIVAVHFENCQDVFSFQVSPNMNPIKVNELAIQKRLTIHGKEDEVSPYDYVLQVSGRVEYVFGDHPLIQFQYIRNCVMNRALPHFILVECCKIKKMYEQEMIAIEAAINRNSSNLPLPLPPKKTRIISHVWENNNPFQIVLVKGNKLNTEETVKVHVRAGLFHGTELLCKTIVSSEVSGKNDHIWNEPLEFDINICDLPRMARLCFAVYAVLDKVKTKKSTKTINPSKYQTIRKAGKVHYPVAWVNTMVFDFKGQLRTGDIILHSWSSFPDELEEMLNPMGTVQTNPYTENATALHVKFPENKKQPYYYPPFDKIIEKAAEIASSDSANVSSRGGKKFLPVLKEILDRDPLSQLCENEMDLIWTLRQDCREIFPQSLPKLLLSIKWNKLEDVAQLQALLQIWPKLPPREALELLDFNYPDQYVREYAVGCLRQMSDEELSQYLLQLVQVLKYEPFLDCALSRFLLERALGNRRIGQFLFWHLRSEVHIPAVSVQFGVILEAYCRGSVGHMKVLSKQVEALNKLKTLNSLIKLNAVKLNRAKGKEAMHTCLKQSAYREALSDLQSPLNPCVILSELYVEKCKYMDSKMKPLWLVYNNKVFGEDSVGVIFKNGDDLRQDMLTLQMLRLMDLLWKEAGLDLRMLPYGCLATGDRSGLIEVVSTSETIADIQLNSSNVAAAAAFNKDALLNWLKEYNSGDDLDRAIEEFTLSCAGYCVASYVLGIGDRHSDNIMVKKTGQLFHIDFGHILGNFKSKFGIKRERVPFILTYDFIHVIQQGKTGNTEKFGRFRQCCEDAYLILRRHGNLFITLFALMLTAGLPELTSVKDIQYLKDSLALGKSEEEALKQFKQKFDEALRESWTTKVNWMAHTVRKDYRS

[3] = target: Phosphatidylinositol 4,5-bisphosphate 3-kinase catalytic subunit gamma isoform (Homo sapiens, UniProt P48736); experiment: Inhibition of PI3Kgamma (unknown origin) using PIP2:PS as substrate preincubated for 1 hr followed by ATP and substate addition and measured after 1 hr by ADP-glo reagent based assay
Chain of Phosphatidylinositol 4,5-bisphosphate 3-kinase catalytic subunit gamma isoform (P48736 whole entry, canonical isoform): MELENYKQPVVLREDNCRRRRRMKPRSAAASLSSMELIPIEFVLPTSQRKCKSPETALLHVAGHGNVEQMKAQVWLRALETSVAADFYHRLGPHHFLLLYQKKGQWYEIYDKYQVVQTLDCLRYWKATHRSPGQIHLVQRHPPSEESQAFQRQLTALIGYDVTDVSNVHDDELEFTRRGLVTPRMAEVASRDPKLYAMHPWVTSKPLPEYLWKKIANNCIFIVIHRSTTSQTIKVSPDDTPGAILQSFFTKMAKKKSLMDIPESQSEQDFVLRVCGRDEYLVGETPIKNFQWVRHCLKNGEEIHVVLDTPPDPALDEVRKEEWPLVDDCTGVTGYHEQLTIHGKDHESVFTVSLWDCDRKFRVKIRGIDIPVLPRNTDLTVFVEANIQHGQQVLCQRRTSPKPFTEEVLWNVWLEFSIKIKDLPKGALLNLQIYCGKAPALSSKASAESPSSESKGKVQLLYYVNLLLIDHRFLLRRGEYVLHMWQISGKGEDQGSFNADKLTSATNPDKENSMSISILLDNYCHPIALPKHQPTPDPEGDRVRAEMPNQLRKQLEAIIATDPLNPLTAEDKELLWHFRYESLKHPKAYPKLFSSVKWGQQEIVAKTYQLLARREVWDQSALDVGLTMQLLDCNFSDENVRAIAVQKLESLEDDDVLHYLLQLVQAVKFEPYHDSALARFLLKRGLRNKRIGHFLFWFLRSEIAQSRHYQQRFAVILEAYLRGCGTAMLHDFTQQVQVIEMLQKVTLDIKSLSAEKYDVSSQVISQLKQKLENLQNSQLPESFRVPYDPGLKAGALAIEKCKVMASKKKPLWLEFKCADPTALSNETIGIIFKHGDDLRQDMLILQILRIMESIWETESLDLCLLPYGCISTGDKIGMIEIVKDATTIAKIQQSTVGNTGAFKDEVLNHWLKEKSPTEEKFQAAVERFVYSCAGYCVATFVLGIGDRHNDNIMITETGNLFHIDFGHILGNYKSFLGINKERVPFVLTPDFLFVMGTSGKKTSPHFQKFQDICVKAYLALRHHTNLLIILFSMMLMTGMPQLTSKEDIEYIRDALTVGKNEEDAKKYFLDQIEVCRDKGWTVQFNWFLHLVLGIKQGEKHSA

[4] = target: T1, Phosphatidylinositol 4,5-bisphosphate 3-kinase catalytic subunit delta isoform (Homo sapiens, UniProt O00329); experiment: Inhibition of PI3Kdelta (unknown origin) using PIP2:PS as substrate preincubated for 1 hr followed by ATP and substate addition and measured after 1 hr by ADP-glo reagent based assay
T1 sequence (O00329 whole entry): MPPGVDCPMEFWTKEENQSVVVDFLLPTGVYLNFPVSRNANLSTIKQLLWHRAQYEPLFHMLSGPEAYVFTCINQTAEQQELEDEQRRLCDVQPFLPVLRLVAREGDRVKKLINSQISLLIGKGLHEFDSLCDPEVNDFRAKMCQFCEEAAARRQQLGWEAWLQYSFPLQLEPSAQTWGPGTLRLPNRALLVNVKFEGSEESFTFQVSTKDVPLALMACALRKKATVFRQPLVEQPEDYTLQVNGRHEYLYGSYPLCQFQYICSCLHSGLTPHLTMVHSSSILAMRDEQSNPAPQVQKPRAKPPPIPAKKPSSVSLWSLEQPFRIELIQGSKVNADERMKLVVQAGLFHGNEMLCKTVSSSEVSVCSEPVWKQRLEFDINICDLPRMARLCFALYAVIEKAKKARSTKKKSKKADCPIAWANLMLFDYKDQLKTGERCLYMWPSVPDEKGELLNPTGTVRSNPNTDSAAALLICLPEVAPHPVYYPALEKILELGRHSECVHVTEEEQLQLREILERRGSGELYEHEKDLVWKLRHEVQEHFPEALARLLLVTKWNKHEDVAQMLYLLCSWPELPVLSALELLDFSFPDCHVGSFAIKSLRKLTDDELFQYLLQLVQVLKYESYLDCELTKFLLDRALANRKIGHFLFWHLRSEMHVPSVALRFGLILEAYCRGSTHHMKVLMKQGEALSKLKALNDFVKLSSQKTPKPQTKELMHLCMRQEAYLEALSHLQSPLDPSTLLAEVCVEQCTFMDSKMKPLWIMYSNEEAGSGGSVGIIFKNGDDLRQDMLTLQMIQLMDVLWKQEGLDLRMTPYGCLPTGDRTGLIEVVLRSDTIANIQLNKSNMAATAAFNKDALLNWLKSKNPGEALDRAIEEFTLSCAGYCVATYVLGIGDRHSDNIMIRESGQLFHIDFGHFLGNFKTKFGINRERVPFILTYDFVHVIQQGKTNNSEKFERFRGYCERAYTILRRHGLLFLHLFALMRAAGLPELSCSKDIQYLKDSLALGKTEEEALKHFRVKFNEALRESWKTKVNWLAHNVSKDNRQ

[5] = Cmax in mouse at 1 mg/kg, iv measured after 24 hrs by LC/MS/MS analysis; assay type: ADME, organism-based; design: time 24 hrs, dose 1 mg/kg, route iv; conditions: in vivo
[6] = AUC(0 to t) in mouse at 1 mg/kg, iv measured after 24 hrs by LC/MS/MS analysis; assay type: ADME, organism-based; design: dose 1 mg/kg, time 24 hrs, route iv; conditions: in vivo
[7] = Cmax in mouse at 5 mg/kg, po measured after 24 hrs by LC/MS/MS analysis; assay type: ADME, organism-based; design: time 24 hrs, dose 5 mg/kg, route po; conditions: in vivo
[8] = AUC(0 to t) in mouse at 5 mg/kg, po measured after 24 hrs by LC/MS/MS analysis; assay type: ADME, organism-based; design: dose 5 mg/kg, time 24 hrs, route po; conditions: in vivo
[9] = tested on: Kasumi 1; experiment: Antiproliferative activity against human Kasumi 1 cells assessed as cell growth inhibition incubated for 72 hrs by MTT assay; assay type: functional, cell-based; conditions: Kasumi 1, 72 h
[10] = tested on: T47D; experiment: Antiproliferative activity against human T47D cells expressing PIK3CA mutant assessed as cell growth inhibition incubated for 72 hrs by MTT assay; assay type: functional, cell-based
[11] = Volume of distribution in mouse at 5 mg/kg, po measured after 24 hrs by LC/MS/MS analysis; assay type: ADME, organism-based; conditions: in vivo
[12] = Inhibition of PI3K/AKT/mTOR signaling pathway in human T47D cells assessed as reduction in Akt phosphorylation at S473 residue preincubated for 1 hr followed by recombinant human insulin-like growth factor 1 stimulation by Western blot analysis; assay type: cell-based; conditions: dose 0.01-10 µM
[13] = Half life in mouse at 5 mg/kg, po measured after 24 hrs by LC/MS/MS analysis; assay type: ADME, organism-based; conditions: in vivo
[14] = Oral bioavailability in mouse at 5 mg/kg measured after 24 hrs by LC/MS/MS analysis; assay type: ADME, organism-based; conditions: in vivo
[15] = Clearance in mouse at 5 mg/kg, po measured after 24 hrs by LC/MS/MS analysis; assay type: ADME, organism-based; conditions: in vivo
[16] = Half life in mouse at 1 mg/kg, iv measured after 24 hrs by LC/MS/MS analysis; assay type: ADME, organism-based; conditions: in vivo
[17] = Clearance in mouse at 1 mg/kg, iv measured after 24 hrs by LC/MS/MS analysis; assay type: ADME, organism-based; conditions: in vivo
[18] = Volume of distribution in mouse at 1 mg/kg, iv measured after 24 hrs by LC/MS/MS analysis; assay type: ADME, organism-based; conditions: in vivo

Row | Structure (SMILES) | IC50 [1] | other results
1 | O=C(NCc1cccnc1)c1ccc2c(c1)n(Cc1ccc(C(F)(F)F)cc1)c(=O)c1ccnn12 | > 20 µM | –
2 | CCn1c(=O)c2ccnn2c2cc(NC(C)=O)c(C(=O)NCc3cncnc3)cc21 | > 20 µM | IC50 [2]: > 20 µM; IC50 [3]: > 20 µM; IC50 [4]: > 20 µM
3 | CCNC(=O)c1ccc2c(c1)n(Cc1ccccc1)c(=O)c1ccnn12 | 3.61 µM | –
4 | CCNC(=O)c1ccc2c(c1)n(CCCN(C)C)c(=O)c1ccnn12 | 4.26 µM | –
5 | CCn1c(=O)c2cc(C)nn2c2ccc(C(=O)NCc3cccnc3)cc21 | 11.4 µM | –
6 | CC(C)(C)c1ccc(Cn2c(=O)c3ccnn3c3ccc(C(=O)NCc4cccnc4)cc32)cc1 | > 20 µM | –
7 | CCn1c(=O)c2ccnn2c2cc(N)c(C(=O)NCc3cccnc3)cc21 | 0.87 µM | IC50 [2]: 0.72 µM; Cmax [5]: < 50 ng/mL; AUC(0-t) at 24 h [6]: < 100 ng·h/mL; Cmax [7]: < 50 ng/mL; IC50 [3]: 1.4 µM; IC50 [4]: 5.74 µM; AUC(0-t) at 24 h [8]: < 100 ng·h/mL; IC50 [9]: 4.38 µM
8 | CCn1c(=O)c2cccn2c2ccc(C(=O)NCc3cccnc3)cc21 | > 20 µM | –
9 | CCn1c(=O)c2ccnn2c2ccc(C(=O)NCc3ccncc3)cc21 | 2.86 µM | –
10 | CS(=O)(=O)c1ccc(Cn2c(=O)c3ccnn3c3ccc(C(=O)NCc4cccnc4)cc32)cc1 | > 20 µM | –
11 | CCn1c(=O)c2ccnn2c2ccc(C(=O)NCc3cccnc3C)cc21 | 4.51 µM | –
12 | Cc1nc(NC(=O)N2CCC[C@H]2C(N)=O)sc1-c1ccnc(C(C)(C)C(F)(F)F)c1 [ALPELISIB] | – | IC50 [10]: 0.1 µM; IC50 [9]: 0.44 µM
13 | CCN1C(=O)N2CCCN=C2c2ccc(C(=O)NCc3cccnc3)cc21 | > 20 µM | –
14 | CCN1C(=O)N2CCN=C2c2ccc(C(=O)NCc3cccnc3)cc21 | > 20 µM | –
15 | O=C(NCc1cccnc1)c1ccc2c(c1)n(CC1CC1)c(=O)c1ccnn12 | 2.65 µM | –
16 | CCn1c(=O)c2ccnn2c2ccc(C(=O)NCCc3cccnc3)cc21 | 13.9 µM | –
17 | CCn1c(=O)c2ccnn2c2ccc(C(=O)NCc3cnccn3)cc21 | 4.76 µM | –
18 | CCCCn1c(=O)c2ccnn2c2ccc(C(=O)NCc3cccnc3)cc21 | 2 µM | –
19 | CCn1c(=O)c2ccnn2c2ccc(C(=O)N3CCN(c4ccccc4)CC3)cc21 | > 20 µM | –
20 | CCn1c(=O)c2cnc(C)n2c2ccc(C(=O)NCc3cccnc3)cc21 | 3.63 µM | –
21 | CCn1c(=O)c2nccn2c2ccc(C(=O)NCc3cccnc3)cc21 | > 20 µM | –
22 | CCn1c(=O)c2ccnn2c2ccc(C(=O)NCc3cccnc3)cc21 | 3.52 µM | –
23 | CN1CCC(N2CCN(C(=O)c3ccc4c(c3)[nH]c(=O)c3ccnn34)CC2)CC1 | > 20 µM | –
24 | CCn1c(=O)c2ccnn2c2cc(N)c(C(=O)NCc3cncnc3)cc21 | 0.24 µM | IC50 [10]: 1.82 µM; Vd [11]: 6.36 L/kg; IC50 [2]: > 10 µM; inhibition [12]: Dose-Dependent Effect; Cmax [5]: 567 ng/mL; AUC(0-t) at 24 h [6]: 717 ng·h/mL; half-life [13]: 4.97 h; Cmax [7]: 863 ng/mL; IC50 [3]: 0.83 µM; IC50 [4]: 4.1 µM; AUC(0-t) at 24 h [8]: 3290 ng·h/mL; bioavailability [14]: 91.8%; CL/F [15]: 15.7 mL/min/kg; half-life [16]: 2.52 h; IC50 [9]: 1.64 µM; clearance [17]: 20.5 mL/min/kg; Vd [18]: 3.13 L/kg
25 | CCn1c(=O)c2cc(C(C)C)nn2c2ccc(C(=O)NCc3cccnc3)cc21 | > 20 µM | –

Row | Structure (SMILES) | IC50 [1] | other results
26 | CCn1c(=O)c2ccnn2c2ccc(C(=O)NCc3cnccc3C)cc21 | 3.52 µM | –
27 | CCn1c(=O)c2ccnn2c2ccc(C(=O)NCc3cncc(C)c3)cc21 | 2.65 µM | –
28 | CCNC(=O)c1ccc2c(c1)n(CC)c(=O)c1ccnn12 | 9.3 µM | –
29 | CCN1C(=O)N2CC(C)(C)CN=C2c2ccc(C(=O)NCc3cccnc3)cc21 | > 20 µM | –
30 | O=C(c1ccc2c(c1)[nH]c(=O)c1ccnn12)N1CCN(C2CCCC2)CC1 | > 20 µM | –
31 | CCn1c(=O)c2ccnn2c2ccc(C(=O)NCc3ccccn3)cc21 | 2.86 µM | –
32 | CCn1c(=O)c2ccnn2c2cc(NC)c(C(=O)NCc3cccnc3)cc21 | > 20 µM | IC50 [2]: 4.89 µM; IC50 [3]: > 20 µM; IC50 [4]: > 20 µM
33 | CCn1c(=O)c2ccnn2c2ccc(C(=O)NCc3ccc(C)nc3)cc21 | 3.62 µM | –
34 | O=C(NCc1cccnc1)c1ccc2c(c1)n(Cc1ccc(OC(F)(F)F)cc1)c(=O)c1ccnn12 | > 20 µM | –
35 | O=C(NCCN1CCOCC1)c1ccc2c(c1)n(Cc1ccc(F)cc1)c(=O)c1ccnn12 | 9.62 µM | –
36 | Cn1c(=O)c2ccnn2c2ccc(C(=O)NCCN3CCOCC3)cc21 | 12.3 µM | –
37 | CNC(=O)c1ccc2c(c1)n(CCCN(C)C1CCCCC1)c(=O)c1ccnn12 | 11 µM | –
38 | CCn1c(=O)c2ccnn2c2ccc(C(=O)NCCCN3CCOCC3)cc21 | 4.18 µM | –
39 | CCn1c(=O)c2ccnn2c2cc(N(C)C)c(C(=O)NCc3cccnc3)cc21 | > 20 µM | IC50 [2]: 15 µM; IC50 [3]: > 20 µM; IC50 [4]: > 20 µM
40 | CCN1C(=O)C2CCCCN2c2ccc(C(=O)NCc3cccnc3)cc21 (centres undefined) | > 20 µM | –
41 | CCN1C(=O)[C@H]2CCCN2c2ccc(C(=O)NCc3cccnc3)cc21 | > 20 µM | –
42 | CCN1C(=O)[C@@H]2CCCN2c2ccc(C(=O)NCc3cccnc3)cc21 | > 20 µM | –
43 | CCn1c(=O)c2ccnn2c2ccc(C(=O)NCc3cncnc3)cc21 | 1.59 µM | –
44 | CCn1c(=O)c2ccnn2c2ccc(C(=O)NCc3cnn(C)c3)cc21 | 5.47 µM | –
45 | CCNC(=O)c1ccc2c(c1)n(CCN1CCCCC1)c(=O)c1ccnn12 | 5.25 µM | –
46 | O=C(NCCN1CCOCC1)c1ccc2c(c1)n(Cc1ccccc1)c(=O)c1ccnn12 | 10.3 µM | –
47 | CCNC(=O)c1ccc2c(c1)n(CCOC)c(=O)c1ccnn12 | 6.43 µM | –
48 | CCn1c(=O)c2ccnn2c2ccc(C(=O)NCCN3CCOCC3)cc21 | 10.9 µM | –
49 | CCn1c(=O)c2ccnn2c2ccc(C(=O)N3CCN(C)CC3)cc21 | > 20 µM | –
